# Experimental data from PubChem BioAssay (NCI).
#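 Results reflect a 48-hour exposure of cells in 96-well plates to compound at five concentrations. The concentration for 50% growth inhibition is given as GI50. The concentration for full growth arrest is given as TGI.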
# Experiments:
# Assay in all cases: NCI anticancer screen, dose series, 48 h
# LOX IMVI melanoma = tested on: LOX IMVI melanoma
# OVCAR-4 ovarian = tested on: OVCAR-4 ovarian
# MDA-MB-231 breast = tested on: MDA-MB-231 breast
# MCF7 breast = tested on: MCF7 breast
# PC-3 prostate = tested on: PC-3 prostate
# U251 CNS = tested on: U251 CNS
# TK-10 renal = tested on: TK-10 renal
# MALME-3M melanoma = tested on: MALME-3M melanoma
# OVCAR-8 ovarian = tested on: OVCAR-8 ovarian
# COLO 205 colon = tested on: COLO 205 colon
# HCT-116 colon = tested on: HCT-116 colon
# ACHN renal = tested on: ACHN renal
# HL-60(TB) leukemia = tested on: HL-60(TB) leukemia
# OVCAR-5 ovarian = tested on: OVCAR-5 ovarian
# HS 578T breast = tested on: HS 578T breast
# NCI-H460 lung = tested on: NCI-H460 lung
# EKVX NSCLC = tested on: EKVX NSCLC
# MDA-MB-435 = tested on: MDA-MB-435
# SR leukemia = tested on: SR leukemia
# M14 melanoma = tested on: M14 melanoma
# MOLT-4 leukemia = tested on: MOLT-4 leukemia
# UACC-62 melanoma = tested on: UACC-62 melanoma
# HOP-62 NSCLC = tested on: HOP-62 NSCLC
# MDA-MB-468 breast = tested on: MDA-MB-468 breast
# SK-MEL-28 melanoma = tested on: SK-MEL-28 melanoma
# T-47D breast = tested on: T-47D breast
# SK-MEL-2 melanoma = tested on: SK-MEL-2 melanoma
# OVCAR-3 ovarian = tested on: OVCAR-3 ovarian
# SK-OV-3 ovarian = tested on: SK-OV-3 ovarian
# NCI-H522 lung = tested on: NCI-H522 lung
# CAKI-1 renal = tested on: CAKI-1 renal
# SF-295 CNS = tested on: SF-295 CNS
# SW-620 colon = tested on: SW-620 colon
# A549 NSCLC = tested on: A549 NSCLC
# KM12 colon = tested on: KM12 colon
# RXF 393 renal = tested on: RXF 393 renal
# HT29 colon = tested on: HT29 colon
# NCI-H226 lung = tested on: NCI-H226 lung
# SNB-19 CNS = tested on: SNB-19 CNS
# K-562 leukemia = tested on: K-562 leukemia
# UO-31 renal = tested on: UO-31 renal
# SN12C renal = tested on: SN12C renal
# SK-MEL-5 melanoma = tested on: SK-MEL-5 melanoma
# SF-268 CNS = tested on: SF-268 CNS
# CCRF-CEM leukemia = tested on: CCRF-CEM leukemia
# HCC-2998 colon = tested on: HCC-2998 colon
# SF-539 CNS = tested on: SF-539 CNS
# HCT-15 colon = tested on: HCT-15 colon
# 786-0 renal = tested on: 786-0 renal
# IGROV1 ovarian = tested on: IGROV1 ovarian
# UACC-257 melanoma = tested on: UACC-257 melanoma
# A498 renal = tested on: A498 renal
# SNB-75 CNS = tested on: SNB-75 CNS
# NCI-H23 lung = tested on: NCI-H23 lung
# DU-145 prostate = tested on: DU-145 prostate
# BT-549 breast = tested on: BT-549 breast
# HOP-92 NSCLC = tested on: HOP-92 NSCLC
compound,measurement,setting,value
O=C(/C=C/c1ccccc1)c1nc2ccccc2n1Cc1ccc(F)cc1,GI50,LOX IMVI melanoma,1.62 µM
same,TGI,LOX IMVI melanoma,3.1 µM
same,GI50,OVCAR-4 ovarian,11.1 µM
same,TGI,OVCAR-4 ovarian,28.6 µM
same,GI50,MDA-MB-231 breast,1.98 µM
same,TGI,MDA-MB-231 breast,4.17 µM
same,GI50,MCF7 breast,1.77 µM
same,TGI,MCF7 breast,6.02 µM
same,GI50,PC-3 prostate,4.13 µM
same,TGI,PC-3 prostate,26.7 µM
same,GI50,U251 CNS,1.62 µM
same,TGI,U251 CNS,3.19 µM
same,GI50,TK-10 renal,2.9 µM
same,TGI,TK-10 renal,10.4 µM
same,GI50,MALME-3M melanoma,3.52 µM
same,TGI,MALME-3M melanoma,14.5 µM
same,GI50,OVCAR-8 ovarian,2.56 µM
same,TGI,OVCAR-8 ovarian,6.88 µM
same,GI50,COLO 205 colon,3.18 µM
same,TGI,COLO 205 colon,7.86 µM
same,GI50,HCT-116 colon,1.92 µM
same,TGI,HCT-116 colon,3.84 µM
same,GI50,ACHN renal,3.66 µM
same,TGI,ACHN renal,12.6 µM
same,GI50,HL-60(TB) leukemia,2.44 µM
same,TGI,HL-60(TB) leukemia,12.4 µM
same,GI50,OVCAR-5 ovarian,3.31 µM
same,TGI,OVCAR-5 ovarian,11.6 µM
same,GI50,HS 578T breast,4.76 µM
same,TGI,HS 578T breast,47.6 µM
same,GI50,NCI-H460 lung,2.14 µM
same,TGI,NCI-H460 lung,5.38 µM
same,GI50,EKVX NSCLC,4.86 µM
same,TGI,EKVX NSCLC,17 µM
same,GI50,MDA-MB-435,2.23 µM
same,TGI,MDA-MB-435,5.92 µM
same,GI50,SR leukemia,2.99 µM
same,TGI,SR leukemia,> 100 µM
same,GI50,M14 melanoma,3.17 µM
same,TGI,M14 melanoma,11.4 µM
same,GI50,MOLT-4 leukemia,3.16 µM
same,TGI,MOLT-4 leukemia,> 100 µM
same,GI50,UACC-62 melanoma,2.42 µM
same,TGI,UACC-62 melanoma,10.4 µM
same,GI50,HOP-62 NSCLC,3.93 µM
same,TGI,HOP-62 NSCLC,12.6 µM
same,GI50,MDA-MB-468 breast,1.92 µM
same,TGI,MDA-MB-468 breast,3.73 µM
same,GI50,SK-MEL-28 melanoma,2.18 µM
same,TGI,SK-MEL-28 melanoma,5.25 µM
same,GI50,T-47D breast,2.71 µM
same,TGI,T-47D breast,12.1 µM
same,GI50,SK-MEL-2 melanoma,5.11 µM
same,TGI,SK-MEL-2 melanoma,17.1 µM
same,GI50,OVCAR-3 ovarian,2 µM
same,TGI,OVCAR-3 ovarian,4.14 µM
same,GI50,SK-OV-3 ovarian,18.9 µM
same,TGI,SK-OV-3 ovarian,45.5 µM
same,GI50,NCI-H522 lung,2.42 µM
same,TGI,NCI-H522 lung,5.85 µM
same,GI50,CAKI-1 renal,2.97 µM
same,TGI,CAKI-1 renal,12.5 µM
same,GI50,SF-295 CNS,3.19 µM
same,TGI,SF-295 CNS,10.8 µM
same,GI50,SW-620 colon,2.15 µM
same,TGI,SW-620 colon,4.45 µM
same,GI50,A549 NSCLC,4.82 µM
same,TGI,A549 NSCLC,21.1 µM
same,GI50,KM12 colon,2.18 µM
same,TGI,KM12 colon,5.01 µM
same,GI50,RXF 393 renal,1.56 µM
same,TGI,RXF 393 renal,3 µM
same,GI50,HT29 colon,3.26 µM
same,TGI,HT29 colon,9.14 µM
same,GI50,NCI-H226 lung,13.8 µM
same,TGI,NCI-H226 lung,34.4 µM
same,GI50,SNB-19 CNS,2.13 µM
same,TGI,SNB-19 CNS,5.76 µM
same,GI50,K-562 leukemia,3.1 µM
same,TGI,K-562 leukemia,> 100 µM
same,GI50,UO-31 renal,1.77 µM
same,TGI,UO-31 renal,4.21 µM
same,GI50,SN12C renal,3.7 µM
same,TGI,SN12C renal,13.8 µM
same,GI50,SK-MEL-5 melanoma,3.49 µM
same,TGI,SK-MEL-5 melanoma,14.4 µM
same,GI50,SF-268 CNS,7.22 µM
same,TGI,SF-268 CNS,30.2 µM
same,GI50,CCRF-CEM leukemia,4.43 µM
same,TGI,CCRF-CEM leukemia,> 100 µM
same,GI50,HCC-2998 colon,1.83 µM
same,TGI,HCC-2998 colon,3.91 µM
same,GI50,SF-539 CNS,2.01 µM
same,TGI,SF-539 CNS,4.18 µM
same,GI50,HCT-15 colon,1.75 µM
same,TGI,HCT-15 colon,3.66 µM
same,GI50,786-0 renal,1.82 µM
same,TGI,786-0 renal,3.49 µM
same,GI50,IGROV1 ovarian,2.33 µM
same,TGI,IGROV1 ovarian,5.89 µM
same,GI50,UACC-257 melanoma,4.1 µM
same,TGI,UACC-257 melanoma,17 µM
same,GI50,A498 renal,18.5 µM
same,TGI,A498 renal,33.1 µM
same,GI50,SNB-75 CNS,1.72 µM
same,TGI,SNB-75 CNS,10.9 µM
same,GI50,NCI-H23 lung,2.66 µM
same,TGI,NCI-H23 lung,8.6 µM
same,GI50,DU-145 prostate,3.67 µM
same,TGI,DU-145 prostate,14.2 µM
same,GI50,BT-549 breast,2.54 µM
same,TGI,BT-549 breast,7.59 µM
same,GI50,HOP-92 NSCLC,4.03 µM
same,TGI,HOP-92 NSCLC,20.4 µM
